The source made the active and inactive calls. The rule behind the calls is not given here.
Columns and labels:
[1] = system: HepG2; assay: Cytotoxicity against human HepG2 cells assessed as cell growth inhibition after 48 hrs by MTT assay; type: functional, cell-based; details: HepG2, 48 h
[2] = Cytotoxicity against human QSG7701 cells assessed as cell growth inhibition after 48 hrs by MTT assay; type: cell-based; details: QSG7701, 48 h
[3] = system: H22; assay: Antitumor activity against […] xenografted in Kunming mouse assessed as suppression of tumor weight at 3 mg/kg, iv dosed every day starting from day 8 after tumor cell inoculation; type: functional
[4] = system: H22; assay: Antimetastatic activity against […] xenografted in pulmonary metastasis Kunming mouse model assessed as reduction in tumor metastatic nodules at 3 mg/kg, iv dosed every day starting from day 8 after tumor cell inoculation; type: functional; set-up: scale not given: the % may be the effect or the level left
[5] = system: Mus musculus; assay: Toxicity in Kunming mouse xenografted with […] cells assessed as effect on liver weight index at 3 mg/kg, iv dosed every day starting from day 8 after tumor cell inoculation; type: organism-based; details: in vivo
[6] = Drug uptake in human HepG2 cells assessed as PAT-mediated cellular uptake at 10 uM by HCS analysis; type: ADME, cell-based; details: TDE = time-dependent effect
[7] = system: HepG2; assay: Cytotoxicity against human HepG2 cells assessed as effect on cell viability at 5 to 20 uM after 24 hrs in absence of spermidine by MTT assay; type: functional, cell-based
[8] = system: HepG2; assay: Cytotoxicity against human HepG2 cells assessed as effect on cell viability at 5 to 10 uM after 24 hrs in presence of spermidine by MTT assay; type: functional, cell-based
[9] = Drug uptake in human HepG2 cells assessed as PAT-mediated compound uptake by measuring fluorescent intensity at 10 uM after 2 to 8 hrs in presence of spermidine by HCS analysis; type: ADME, cell-based
[10] = system: HepG2; assay: Effect on ODC expression in human HepG2 cells at 5 to 20 uM after 24 hrs by Western blot analysis; type: functional, cell-based
[11] = system: HepG2; assay: Effect on SSAT expression in human HepG2 cells at 5 to 20 uM after 24 hrs by Western blot analysis; type: functional, cell-based
[12] = system: SMMC-7721; assay: Effect on ODC expression in human SMMC7721 cells at 5 to 20 uM after 24 hrs by Western blot analysis; type: functional, cell-based
[13] = system: HepG2; assay: Effect on putrescine levels in human HepG2 cells at 20 uM after 24 hrs by HPLC analysis; type: functional, cell-based
[14] = system: SMMC-7721; assay: Effect on putrescine levels in human SMMC7721 cells at 20 uM after 24 hrs by HPLC analysis; type: functional, cell-based
[15] = system: SMMC-7721; assay: Effect on spermine levels in human SMMC7721 cells at 20 uM after 24 hrs by HPLC analysis; type: functional, cell-based
[16] = Drug localization in human HepG2 cell nucleus at 10 uM after 8 hrs by propidium iodide-staining based microscopic analysis; type: ADME
[17] = Drug localization in human HepG2 cell endoplasmic reticulum at 10 uM after 8 hrs by ER tracker-staining based confocal microscopic analysis; type: ADME
[18] = Drug localization in human HepG2 cell golgi apparatus at 10 uM after 8 hrs by Golgi tracker-staining based confocal microscopic analysis; type: ADME
[19] = Drug localization in human HepG2 cell mitochondria at 10 uM after 8 hrs by Mito tracker-staining based confocal microscopic analysis; type: ADME
[20] = Drug localization in mitochondria of human HepG2 cells at 10 uM after 8 hrs by UV-bright field microscopic analysis; type: ADME
[21] = system: HepG2; assay: Disruption of mitochondrial membrane potential in human HepG2 cells at 20 uM after 24 hrs by JC-1 staining based flow cytometry; type: functional, cell-based
[22] = system: HepG2; assay: Induction of apoptosis in human HepG2 cells assessed as reduction in viable cells up to 20 uM after 24 hrs by AO/EB double staining based flow cytometric analysis; type: functional, cell-based
[23] = system: HepG2; assay: Induction of apoptosis in human HepG2 cells assessed as increase in apoptotic cells up to 20 uM after 24 hrs by AO/EB double staining based flow cytometric analysis; type: functional, cell-based
[24] = system: HepG2; assay: Induction of apoptosis in human HepG2 cells assessed as viable cells at 20 uM after 24 hrs by Annexin V-FITC/propidium iodide staining based flow cytometric analysis (reference value: 86 %); type: functional; details: HepG2, 24 h, read-out: Activity
[25] = system: HepG2; assay: Induction of apoptosis in human HepG2 cells assessed as early apoptotic cells at 20 uM after 24 hrs by Annexin V-FITC/propidium iodide staining based flow cytometric analysis (reference value: 2.09 %); type: functional
[26] = system: HepG2; assay: Induction of apoptosis in human HepG2 cells assessed as late apoptotic cells at 20 uM after 24 hrs by Annexin V-FITC/propidium iodide staining based flow cytometric analysis (reference value: 8.96 %); type: functional
[27] = system: HepG2; assay: Induction of apoptosis in human HepG2 cells assessed as upregulation of cleaved caspase 3 after 24 hrs by immunofluorescence analysis; type: functional, cell-based
[28] = Induction of apoptosis in human QSG7701 cells assessed as up-regulation of caspase 3 expression up to 20 uM after 24 hrs by Western blot analysis; type: cell-based; details: qsg7701, 24 h
[29] = system: HepG2; assay: Induction of intracellular ROS generation in human HepG2 cells at 20 uM after 8 hrs by DCFH-DA staining based HCS analysis relative to control; type: functional
[30] = system: SMMC-7721; assay: Induction of intracellular ROS generation in human SMMC7721 cells at 20 uM after 8 hrs by DCFH-DA staining based HCS analysis relative to control; type: functional
[31] = Induction of intracellular ROS generation in human QSG7701 cells at 20 uM after 8 hrs by DCFH-DA staining based HCS analysis relative to control; type: cell-based; details: qsg7701, 8 h
[32] = system: HepG2; assay: Induction of H2O2 production in human HepG2 cells; type: functional, cell-based
[33] = system: HepG2; assay: Induction of ROS generation in human HepG2 cells at 20 uM after 24 hrs in presence of TOC by DCFH-DA-staining based HCS analysis; type: functional, cell-based
[34] = system: HepG2; assay: Antiproliferative activity against human HepG2 cells assessed as reduction in cell viability at 20 uM pre-treated with TOC after 48 hrs by MTT assay; type: functional, cell-based
[35] = system: SMMC-7721; assay: Antiproliferative activity against human SMMC7721 cells assessed as reduction in cell viability at 20 uM pre-treated with TOC after 48 hrs by MTT assay; type: functional, cell-based
[36] = system: SMMC-7721; assay: Antiproliferative activity against human SMMC7721 cells assessed as reduction in cell viability at 20 uM pre-treated with CAT after 48 hrs by MTT assay; type: functional, cell-based
[37] = system: HepG2; assay: Induction of cleaved caspase 3 expression in human HepG2 cells up to 20 uM pre-treated with NAC measured after 24 hrs by Western blot analysis; type: functional, cell-based
[38] = system: HepG2; assay: Inhibition of cell migration in human HepG2 cells pretreated with NAC measured after 24 hrs by transwell assay; type: functional, cell-based
[39] = system: HepG2; assay: Induction of p53 expression in human HepG2 cells up to 20 uM after 24 hrs by Western blot analysis relative to control; type: functional, cell-based
[40] = system: HepG2; assay: Induction of p53 expression in human HepG2 cells up to 20 uM pre-treated with NAC after 24 hrs by Western blot analysis relative to control; type: functional, cell-based
[41] = system: HepG2; assay: Induction of superoxide production in human HepG2 cells at 20 uM after 24 hrs by microplate reader based assay; type: functional, cell-based
[42] = system: HepG2; assay: Induction of p53 expression in human HepG2 cells up to 20 uM after 24 hrs by immunofluoresence assay relative to control; type: functional, cell-based

Drug uptake [6]: Tde | Drug uptake [9]: Not Active | Drug uptake [16]: Not Active | Drug uptake [17]: Not Active | Drug uptake [18]: Not Active | Drug uptake [19]: Active | Drug uptake [20]: Active
Structure (SMILES): Cl.Cl.NCCCCNCCCCN1C(=O)c2cccc3c(-c4cc(=O)c5ccccc5o4)ccc(c23)C1=O
IC50 [1]: 10.3 µM | IC50 [2]: > 50 µM | Activity [3]: 60.4% | Activity [4]: 77.9% | Activity [5]: Non-Toxic | Activity [7]: Active | Activity [8]: inactive | Activity [10]: inactive | Activity [11]: inactive | Activity [12]: inactive | Activity [13]: inactive | Activity [14]: inactive | Activity [15]: inactive | Activity [21]: Active | Activity [22]: Dose-dependent effect | Activity [23]: Dose-dependent effect | viability at 20 µM [24]: 37.8% | Activity [25]: 26.6% | Activity [26]: 26.6% | Activity [27]: Dose-dependent effect | Activity [28]: Non-Toxic | fold change (FC) [29]: 2.6 | fold change (FC) [30]: 2.2 | Activity [31]: Non-Toxic | Activity [32]: Active | Activity [33]: inactive | Activity [34]: inactive | Activity [35]: inactive | Activity [36]: inactive | Activity [37]: inactive | inhibition [38]: inactive | Activity [39]: Dose-dependent effect | Activity [40]: inactive | Activity [41]: Active | Activity [42]: Dose-dependent effect

Source: ChEMBL document CHEMBL4007412, “Design, Synthesis, and Biological Evaluation of Mitochondria-Targeted Flavone-Naphthalimide-Polyamine Conjugates with Antimetastatic Activity” (J Med Chem, 2017)
